Data from ChEMBL document CHEMBL1201862, “PubChem BioAssay data set” (2004).
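These data come from cells grown in 96-well plates and exposed to compound for 48 hours at five concentrations. At the GI50, growth is halved.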 Activity calls are given as the source filed them. Rule as the data show it: active = GI50 up to about 1.1 µM and inactive = higher.

How the values were obtained:
Test in all cases: NCI tumour cell line growth inhibition, 48 h
CCRF-CEM = system: CCRF-CEM
IGROV-1 = system: IGROV-1
DMS-273 = system: DMS-273
LOX IMVI = system: LOX IMVI
RPMI-8226 = system: RPMI-8226
SK-MEL-2 = system: SK-MEL-2
K562 = system: K562
786-0 = system: 786-0
OVCAR-4 = system: OVCAR-4
NCI-H522 = system: NCI-H522
HL-60 = system: HL-60
TK-10 = system: TK-10
CAKI-1 = system: CAKI-1
UACC-62 = system: UACC-62
KM-20L2 = system: KM-20L2
HOP-18 = system: HOP-18
HCT-15 = system: HCT-15
SN12C = system: SN12C
OVCAR-5 = system: OVCAR-5
LXFL 529 = system: LXFL 529
KM12 = system: KM12
SK-OV-3 = system: SK-OV-3
COLO 205 = system: COLO 205
ACHN = system: ACHN
SNB-75 = system: SNB-75
SW-620 = system: SW-620
U-251 = system: U-251
SF-539 = system: SF-539
HT-29 = system: HT-29
SK-MEL-5 = system: SK-MEL-5
UO-31 = system: UO-31
MOLT-4 = system: MOLT-4
UACC-257 = system: UACC-257
M14 = system: M14
NCI-H460 = system: NCI-H460
A549 = system: A549
Malme-3M = system: Malme-3M
EKVX = system: EKVX
DMS-114 = system: DMS-114
OVCAR-8 = system: OVCAR-8
SF-268 = system: SF-268
SR = system: SR
DLD-1 = system: DLD-1
NCI-H226 = system: NCI-H226
NCI-H23 = system: NCI-H23
HCT-116 = system: HCT-116
OVCAR-3 = system: OVCAR-3
HOP-62 = system: HOP-62
SNB-78 = system: SNB-78
SK-MEL-28 = system: SK-MEL-28
M19-MEL = system: M19-MEL
A498 = system: A498
SNB-19 = system: SNB-19
SF-295 = system: SF-295
HCC 2998 = system: HCC 2998
HOP-92 = system: HOP-92
RXF 393 = system: RXF 393

In the case of `C/C(CN1C(=O)c2ccccc2C1=O)=N\NS(=O)(=O)c1ccc2ccccc2c1`, the GI50 (CCRF-CEM) is reported as > 100 µM (inactive), the GI50 (IGROV-1) is reported as > 100 µM (inactive) and the GI50 (DMS-273) is reported as > 100 µM (inactive). The GI50 (LOX IMVI) was > 100 µM (inactive), the GI50 (RPMI-8226) was > 100 µM (inactive) and the GI50 (SK-MEL-2) was > 100 µM (inactive). The GI50 (K562) was > 100 µM (inactive), the GI50 (786-0) was > 100 µM (inactive) and the GI50 (OVCAR-4) was > 100 µM (inactive). The GI50 (NCI-H522) was 57.7 µM (inactive), the GI50 (HL-60) was > 100 µM (inactive) and the GI50 (TK-10) was > 100 µM (inactive). For the same molecule, the GI50 (CAKI-1) was > 100 µM (inactive), the GI50 (UACC-62) was > 100 µM (inactive) and the GI50 (KM-20L2) was > 100 µM (inactive). For the same molecule, the GI50 (HOP-18) was > 100 µM (inactive), the GI50 (HCT-15) was greater than 100 µM and the GI50 (SN12C) was > 100 µM (inactive). For the same molecule, the GI50 (OVCAR-5) was > 100 µM (inactive), the GI50 (LXFL 529) was > 100 µM (inactive) and the GI50 (KM12) was > 100 µM (inactive). The GI50 (SK-OV-3) was > 100 µM (inactive), the GI50 (COLO 205) was > 100 µM (inactive) and the GI50 (ACHN) was > 100 µM (inactive). For the same molecule, the GI50 (SNB-75) was 32.1 µM (inactive), the GI50 (SW-620) was > 100 µM (inactive) and the GI50 (U-251) was > 100 µM (inactive). The GI50 (SF-539) was > 100 µM (inactive), the GI50 (HT-29) was > 100 µM (inactive) and the GI50 (SK-MEL-5) was > 100 µM (inactive). For the same molecule, the GI50 (UO-31) was > 100 µM (inactive), the GI50 (MOLT-4) was > 100 µM (inactive) and the GI50 (UACC-257) was > 100 µM (inactive). The GI50 (M14) was > 100 µM (inactive), the GI50 (NCI-H460) was > 100 µM (inactive) and the GI50 (A549) was > 100 µM (inactive). For the same molecule, the GI50 (Malme-3M) was > 100 µM (inactive), the GI50 (EKVX) was > 100 µM (inactive) and the GI50 (DMS-114) was > 100 µM (inactive). For the same molecule, the GI50 (OVCAR-8) was > 100 µM (inactive), the GI50 (SF-268) was 88.5 µM (inactive) and the GI50 (SR) was > 100 µM (inactive). The GI50 (DLD-1) was > 100 µM (inactive), the GI50 (NCI-H226) was > 100 µM (inactive) and the GI50 (NCI-H23) was > 100 µM (inactive). For the same molecule, the GI50 (HCT-116) was > 100 µM (inactive), the GI50 (OVCAR-3) was > 100 µM (inactive) and the GI50 (HOP-62) was > 100 µM (inactive). The GI50 (SNB-78) was > 100 µM (inactive), the GI50 (SK-MEL-28) was > 100 µM (inactive) and the GI50 (M19-MEL) was > 100 µM (inactive). For the same molecule, the GI50 (A498) was > 100 µM (inactive), the GI50 (SNB-19) was > 100 µM (inactive) and the GI50 (SF-295) was > 100 µM (inactive). The GI50 (HCC 2998) was > 100 µM (inactive).

`C(=C1/CCCCC([n+]2ccccc2)=N1)/c1ccccc1` was tested, and the GI50 (CCRF-CEM) was > 100 µM (inactive), the GI50 (DMS-273) was > 100 µM (inactive) and the GI50 (HOP-92) was > 100 µM (inactive). The GI50 (LOX IMVI) was > 100 µM (inactive), the GI50 (RPMI-8226) was > 100 µM (inactive) and the GI50 (SK-MEL-2) was > 100 µM (inactive). For the same molecule, the GI50 (K562) was > 100 µM (inactive), the GI50 (786-0) was > 100 µM (inactive) and the GI50 (OVCAR-4) was > 100 µM (inactive). The GI50 (NCI-H522) was > 100 µM (inactive), the GI50 (HL-60) was > 100 µM (inactive) and the GI50 (CAKI-1) was > 100 µM (inactive). The GI50 (UACC-62) was > 100 µM (inactive), the GI50 (KM-20L2) was > 100 µM (inactive) and the GI50 (HOP-18) was > 100 µM (inactive). The GI50 (HCT-15) was greater than 100 µM, the GI50 (SN12C) was > 100 µM (inactive) and the GI50 (OVCAR-5) was > 100 µM (inactive). The GI50 (LXFL 529) was > 100 µM (inactive), the GI50 (SK-OV-3) was > 100 µM (inactive) and the GI50 (COLO 205) was > 100 µM (inactive). The GI50 (ACHN) was > 100 µM (inactive), the GI50 (SNB-75) was > 100 µM (inactive) and the GI50 (SW-620) was > 100 µM (inactive). For the same molecule, the GI50 (U-251) was > 100 µM (inactive), the GI50 (SF-539) was > 100 µM (inactive) and the GI50 (HT-29) was > 100 µM (inactive). For the same molecule, the GI50 (UO-31) was > 100 µM (inactive), the GI50 (MOLT-4) was > 100 µM (inactive) and the GI50 (M14) was > 100 µM (inactive). For the same molecule, the GI50 (NCI-H460) was > 100 µM (inactive), the GI50 (A549) was > 100 µM (inactive) and the GI50 (Malme-3M) was > 100 µM (inactive). The GI50 (EKVX) was > 100 µM (inactive), the GI50 (DMS-114) was > 100 µM (inactive) and the GI50 (OVCAR-8) was > 100 µM (inactive). For the same molecule, the GI50 (RXF 393) was > 100 µM (inactive), the GI50 (SF-268) was > 100 µM (inactive) and the GI50 (SR) was > 100 µM (inactive). The GI50 (DLD-1) was > 100 µM (inactive), the GI50 (NCI-H226) was > 100 µM (inactive) and the GI50 (NCI-H23) was > 100 µM (inactive). For the same molecule, the GI50 (HCT-116) was > 100 µM (inactive), the GI50 (OVCAR-3) was > 100 µM (inactive) and the GI50 (HOP-62) was > 100 µM (inactive). For the same molecule, the GI50 (SNB-78) was > 100 µM (inactive), the GI50 (SK-MEL-28) was > 100 µM (inactive) and the GI50 (M19-MEL) was > 100 µM (inactive). The GI50 (SF-295) was > 100 µM (inactive) and the GI50 (HCC 2998) was > 100 µM (inactive).
